{
  "source": "patent US20160008339A1",
  "about": "“PSORALEN DERIVATIVES FOR PREVENTING OR TREATING HEART FAILURE OR CARDIAC HYPERTROPHY” (MAX-DELBRUCK-CENTRUM FUR MOLEKULARE MEDIZIN, priority 2012, published 2016)",
  "key": {"[1]": {"target": "T1, AKAP-Lbc (guanine nucleotide exchange on RhoA) (Homo sapiens, UniProt Q12802)", "T1 sequence (Q12802 1994-2333)": "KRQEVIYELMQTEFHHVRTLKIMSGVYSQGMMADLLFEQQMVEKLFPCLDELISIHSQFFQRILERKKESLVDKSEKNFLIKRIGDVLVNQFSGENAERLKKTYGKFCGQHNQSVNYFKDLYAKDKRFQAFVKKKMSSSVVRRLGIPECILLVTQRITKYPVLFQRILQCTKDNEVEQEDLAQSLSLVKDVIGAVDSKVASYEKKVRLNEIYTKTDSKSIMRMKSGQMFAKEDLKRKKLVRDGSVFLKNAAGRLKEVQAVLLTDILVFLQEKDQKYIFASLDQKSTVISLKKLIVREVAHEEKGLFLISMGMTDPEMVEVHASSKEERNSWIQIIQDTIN", "experiment": "RhoGEF nucleotide exchange assay (GDP against mGTP on RhoA)", "settings": "IC50 (fifty percent inhibition of nucleotide exchange), 15 min", "description": "Following the protocol of the RhoGEF exchange assay Biochem Kit, a nucleotide exchange experiment for AKAP-Lbc and RhoA was established. The fluorescence labelled nucleotide analogues 2′(3′)-O—(N-methylanthraniloyl)-guanosine diphosphate and 2′(3′)-O—(N-methylanthraniloyl)-guanosine triphosphate, hereinafter referred to mGDP and mGTP, were used for tracing the nucleotide exchange.\n25 μl depletion buffer (100 mmol/L sodium phosphate, pH 7.4, 5 mmol/L EDTA, 200 mmol/L ammonium sulfate) with an excess of mGDP (5 mmol/L) were added to 200 μg recombinant his6-RhoA (25 μl) and incubated one hour at room temperature. Then, magnesium chloride (MgCl2) was added to a final concentration of 10 mmol/L.\nBy centrifugation with Vivaspin® 500 concentrator vials (MWCO 5 kDa, 10 min, 10000 rpm) and buffer (100 mmol/L sodium phosphate, pH 7.4, 100 mmol/L NaCl, protease inhibitor [cOmplete, Mini, EDTA-free protease inhibitor cocktaile]) RhoA-mGDP was washed twice and reduced to 100 μl. 1 μmol/L RhoA-mGDP and 0.5 μmol/L AKAP-Lbc DHPH in nucleotide exchange buffer (40 mmol/L Tris pH 7.5; 100 mmol/L NaCl; 20 mmol/L MgCl2, 100 μg/ml BSA) were used for the nucleotide exchange. The fluorescence measurements were performed in a micro plate reader (TECAN Safire) over a period of 15 min, whereby the fluorophore of mGDP was excited at 360 nm and the resulting fluorescence signal was determined at 440 nm.\nAt a concentration relation of 2 μmol/L protein and 1 μmol/L mGTP, an ideal fluorescence signal-to-noise-ratio was found in the nucleotide exchange buffer (40 mM Tris pH 7.5, 100 mmol/L NaCl, 20 mmol/L MgCl2, 100 μg/ml BSA). The fluorescence signal for mGTP was measured analogous to mGDP (λexc=360 nm; λem=440 nm) in a micro plate reader (TECAN Safire) over a period of 15 min. The experiment was performed in a 384-well plate."}, "[2]": {"tested_on": "primary neonatal rat cardiomyocytes", "experiment": "Beat rate of neonatal cardiomyocytes counted by light microscope", "type": "cell-based", "settings": "for beat rate after PE stimulation: PE 6 h", "method": "For cultivation of primary neonatal rat cardiomyocytes, hearts of two to three days old rats were obtained and quickly stored on ice in ADS buffer (116.4 mM NaCl, 5.4 mM KC, 5.6 mM dextrose, 10.9 mM NaH2PO4, 405.7 μmol/L MgSO4, 20 mM Hepes, pH 7.3). Under sterile conditions, the hearts were cleaned from blood and vessels, cut into small pieces and transferred into falcon tubes. The ADS buffer was exchanged against an enzyme solution (see table below). Within four cycles each with five ml enzyme solution and an enzyme mix comprising collagenase and pancreatin, isolated cells were released from the tissue (12 min at 37° C. in a water bath with approx. 220 rpm).\nThe supernatant with the isolated cells was collected, transferred in fetal calf serum (FCS, 2.5 ml on ice) and subsequently centrifugated in FCS (100 g for 3 min at 4° C.). The supernatant of the centrifugation was discarded and the pellet was resuspended in 5 ml cold plating medium. After an additional centrifugation, the pellet was resuspended in 15 ml medium, transferred into a dish and incubated for two hours at 37° C. to allow the settling of the fibroblasts. The cardiomyocytes in the supernatant were counted with a Scepter Handheld Automated Cell Counter and transferred in dishes coated with gelatine. On the following day the medium was changed.\nThe neonatal cardiomyocytes were seeded in 6-well plates with 1.5×10^6 cell per well. The stimulation with 100 μmol/L phenylephrine (PE) was performed for six or twenty four hours at 37° C. Untreated cells served as control. The effect of compound 31413 on the α-adrenergic stimulation of the cardiomyocytes was determined after incubation with the compound for three hours. To do this, the contraction of the cells was counted within a minute and different conditions were compared.\nIsolated neonatal cardiomyocytes were used to investigate the relation between AKAP-Lbc induced RhoA activation and the contractility of the heart. After a chronic stimulation of the α1-adreno receptors (AR) with the specific agonist PE for six hours, the beats of the cardiomyocytes were counted over a period of 15 s and a beat rate per minute (bpm) was calculated. An increase of the beat rate of the cardiomyocytes from 100 bpm to 160 beats per minute could be observed. […] The beat rate of neonatal cardiomyocytes was counted with help of a light microscope."}, "[3]": {"tested_on": "primary neonatal cardiomyocytes (α-sceletal muscle actin mRNA)", "experiment": "Hypertrophy marker α-actin 1 mRNA by quantitative real-time PCR", "type": "cell-based, rat", "method": "Primary neonatal cardiomyocytes were prepared as described above. The cardiomyocytes were stimulated for 24 or 48 hours with 100 μmol/L phenylephrin (PE) or 10 μmol/L isoproterenol (ISO) in absence or presence of 10 μmol/L or 50 μmol/L of compound 31413.\nAfter 24 hours or 48 hour of stimulation, the medium was removed, and every well was washed with 2 ml phosphate buffered saline and fixed with 200 μl TRIzol. The cells were removed from each well and transferred into a 1.5 ml Eppendorf tube, respectively.\nFor cell breakdown, 40 μl chloroform was added to each Eppendorf tube. The broken cells were centrifuged for 15 min at 1400 g and 4° C. The supernatant containing RNA/DNA was taken, mixed with 100 μl isopropanol and centrifugated for 20 min at 1500 g and 4° C. The supernatant was discarded and the pellet was resuspended in 500 μL ethanol. The RNA from the pellet was purified by chromatography. The concentration of the RNA was determined by NANODROP.\nThe quantification of the hypertrophy marker α-sceletal muscle actin (α-actin 1) mRNA was performed by quantitative real-time PCR. First, the RNA was transcribed to a cDNA with a SuperScript™III First-Strand Synthesis SuperMix (Invitrogen) and random hexamer primers. The cDNA was amplified in a PCR reaction in an Applied Biosystem StepOne™ Real-Time PCR System. Glycerinealdehydephosphate dehydrogenase and NTC (no template control) was used as controls. All samples were triplicates. The following primers have been used: […]"}, "[4]": {"tested_on": "different RhoGEF constructs", "experiment": "Dual luciferase SRE reporter assay, other RhoGEF constructs in HEK293", "type": "cell-based, human", "settings": "50 μmol/L, vs DMSO treated control", "method": "The experiments were performed following the protocol of the dual luciferase reporter assay (Promega). HEK293 cells were transfected with plasmid DNAs of two luciferases and plasmids of different exchange factors. A serum response element was located ahead of the coding luciferase sequences. Activated RhoA activates the serum response element, which enables the expression of the firefly luciferase. After 4 hours the cells were treated with compound 31413. After additional twenty four hours the cells were lysed in passive lysis buffer (Promega). The luciferase activity in the cell lysate was determined by measurement of the luminescence signal according to above mentioned protocol with 96 well plate (OptiPlate 96) and LarII- and. Stop-&Glow-substrate solutions in a micro plate reader\nTo rule out that other RhoGEF are influenced by the inventive compounds in their activity, HEK293 cells were transfected with different RhoGEF constructs. Additionally, as normalization control, two luciferase plasmids were added, which code for a serum response element (SRE) coupled firefly luciferase and for a Renilla luciferase, respectively. […] The luciferase activities were determined in the lysate. […] Further, the luciferase activity of the indicated RhoGEFs was analysed in absence or presence of 50 μmol/L compound 31413 (FIG. 4 B)."}, "[5]": {"tested_on": "primary neonatal rat cardiomyocytes", "experiment": "Beat frequency of neonatal cardiomyocytes by Fluo-4 calcium measurement", "type": "cell-based", "description": "The frequency of contraction could be determined in a similar manner with a calcium sensor (Fluo-4). In a laser-scanning microscope, Fluo-4 was excited with an argon laser (488 nm) and the emission signals were detected and collected at a wavelength of 505 nm. The fluorescence intensity represented the intracellular concentration of calcium ions. Usually, the line-scan mode was used for image recording, and the line-scan images were recorded with a speed of 1.54 or 1.92 ms per line along the longitudinal axis of the cell. After the sequential image recording, a two-dimensional image with 512×100 lines or 512×2000 lines was generated and saved for later analysis.\nAdditional calcium measurements were performed. […] The fluorescence dye Fluo-4 was added after 20 min. Fluo-4 is a calcium sensor, which is used for investigating the calcium increase in cells. In cardiomyocytes the dye serves for examining the contractility. During contraction and relaxation, the calcium concentrations differ in the cytosol of cardiomyocytes. The fluorescence intensity of Fluo-4 increases with an increasing calcium concentration, and a decreasing calcium concentration will cause reduced fluorescence intensity. A frequency could be calculated from the fluo-4 fluorescence oscillation by a time depended analysis, wherein the fluorescence was measured over a period of two hours. The ground state at the moment before application (black), the period 10 to 30 sec after application (dark grey) and 70 to 110 sec after application (light grey) were evaluated (FIG. 5). Application refers to the adding of PE or adrenaline. […] The statistical analysis was performed according to the method of analysis of variance (ANOVA)."}, "[6]": {"settings": "Fluo-4, pre-incubation 2.5 μmol/L"}},
  "data": [
    {"molecule": "COc1ccc(-c2coc3cc4oc(=O)c(C)c(C)c4cc23)cc1", "note": "[Compound 31413, 3-(4-methoxyphenyl)-5,6-dimethyl-furo[3,2-g]chromen-7-one]", "values": [
      {"measurement": "IC50", "setting": "[1]", "result": 25.9, "unit": "µM"},
      {"measurement": "beat rate after PE stimulation", "setting": "[2]; 2.5 μmol/L compound", "result": "normalization of the beat rate"},
      {"measurement": "beat rate after PE stimulation", "setting": "[2]; 25 μmol/L compound", "result": "arrest"},
      {"measurement": "beat rate after PE stimulation", "setting": "[2]; 50 μmol/L compound", "result": "arrest"},
      {"measurement": "phenylephrine/alpha-adrenoceptor-induced increase in cardiac myocyte beating frequency", "setting": "[2]; at 2.5, 10, 25 and 50 μmol/L", "result": "prevents"},
      {"measurement": "α-actin 1 mRNA amount", "setting": "[3]; PE 100 μmol/L 24 h, compound 10 or 50 μmol/L", "result": "concentration dependent decrease"},
      {"measurement": "relative amount of α-actin 1 mRNA", "setting": "[3]; without PE stimulation", "result": "no significant change"},
      {"measurement": "luciferase activity of the indicated RhoGEFs", "setting": "[4]", "result": "None of the investigated GEF shows a significant reduction"},
      {"measurement": "adrenalin (beta-adrenoceptor)-induced increase in cardiac myocyte beating frequency", "setting": "[5]", "result": "does not, however, affect"},
      {"measurement": "PE induced increase of beat rate", "setting": "[5]; [6]", "result": "inhibited only the PE induced increase of beat rate"},
      {"measurement": "adrenaline induced increase of beat rate", "setting": "[5]; [6]", "result": "not the adrenaline induced one"}
    ]}
  ]
}
